Assay results published in US11459330B2, “Substituted bicyclic heterocyclic compounds as PRMT5 inhibitors” (LUPIN LIMITED, priority 2017, dated 2022).

Experiments:
Z-138 cells [1] = test: SDMA inhibition assay; format: cell-based; conditions: Homo sapiens, 48 h, activity range 1.1 nM to 50 nM
Protocol: SDMA Inhibition Assay Protocol Z-138 cells (ATCC, CRL-3001™) were seeded at a density of 1 million cells/well in transparent, flat bottomed tissue culture grade 48-well plates. Cells were treated with various concentration of test compounds for a period of 48 h. Cell lysate was prepared using 1×CST Lysis buffer (Cell Signaling Technology, USA) and 500 ng/well/50 μL of lysate in pH 9.6 carbonate buffer was coated on 96-well Maxisorb plate and incubated overnight at 4° C. The plate was washed twice in 1×PBS containing 0.05% Tween 20 and blocked in 1% BSA for 1 h at ambient temperature. Further, the plate was incubated first with primary antibody (anti-SDMA antibody; CST #13222s) at ambient temperature for 2 h and then with HRP-conjugated secondary antibody at ambient temperature for 1 h with 2 intermittent washing steps in between.
For luminiscence based detection, HRP substrates (substrate A+substrate B in a 1:1 proportion) were added followed by luminiscence reading after 30 min in Synergy™ 2 reader (Biotek, USA).
For absorbance based detection, TMB substrate was added followed by addition of STOP solution (2N H2SO4) post colour development and absorbance ([…]) was measured in Synergy™ 2 reader (Biotek, USA). % inhibition of SDMA was calculated relative to the vehicle control samples containing media with 0.1% DMSO alone as per the formula below. (Avg. of Untreated Control−Avg. of Test)×100 Avg. of Untreated Control
(§1) The IC50 values of individual compounds were calculated with Non Linear Regression Analysis using Graph Pad Prism (Graph Pad software, Inc, USA).

PRMT5:MEP50 = PRMT5:MEP50 (Homo sapiens, UniProt O14744); test: PRMT5 biochemical HTRF assay (Biochemical Assay Protocol 1 / 2); conditions: biotinylated H4R3 substrate, 1 μM SAM, protocol 1 or 2 not given, activity range 300 pM to 950 pM, read-out: IC50 (PRMT5 inhibition), activity range
PRMT5:MEP50, sequence (O14744 whole entry): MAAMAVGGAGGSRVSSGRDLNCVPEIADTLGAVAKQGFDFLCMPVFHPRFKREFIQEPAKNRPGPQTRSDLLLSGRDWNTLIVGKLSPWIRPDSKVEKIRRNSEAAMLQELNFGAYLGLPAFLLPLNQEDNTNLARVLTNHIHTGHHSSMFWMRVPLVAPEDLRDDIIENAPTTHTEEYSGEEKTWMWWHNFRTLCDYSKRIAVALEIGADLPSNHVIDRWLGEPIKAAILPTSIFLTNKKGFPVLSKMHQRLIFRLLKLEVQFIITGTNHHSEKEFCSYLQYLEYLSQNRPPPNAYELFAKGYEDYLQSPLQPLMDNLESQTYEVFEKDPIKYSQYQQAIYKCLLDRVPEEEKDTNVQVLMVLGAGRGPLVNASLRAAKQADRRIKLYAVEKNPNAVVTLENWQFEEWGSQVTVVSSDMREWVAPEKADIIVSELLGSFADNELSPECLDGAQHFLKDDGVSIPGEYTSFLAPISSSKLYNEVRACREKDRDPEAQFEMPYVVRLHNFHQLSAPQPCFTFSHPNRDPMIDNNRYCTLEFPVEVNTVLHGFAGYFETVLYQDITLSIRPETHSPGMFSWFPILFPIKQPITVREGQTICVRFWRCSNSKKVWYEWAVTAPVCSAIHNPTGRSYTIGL
PRMT5:MEP50, sequence (Q9BQA1 whole entry partner): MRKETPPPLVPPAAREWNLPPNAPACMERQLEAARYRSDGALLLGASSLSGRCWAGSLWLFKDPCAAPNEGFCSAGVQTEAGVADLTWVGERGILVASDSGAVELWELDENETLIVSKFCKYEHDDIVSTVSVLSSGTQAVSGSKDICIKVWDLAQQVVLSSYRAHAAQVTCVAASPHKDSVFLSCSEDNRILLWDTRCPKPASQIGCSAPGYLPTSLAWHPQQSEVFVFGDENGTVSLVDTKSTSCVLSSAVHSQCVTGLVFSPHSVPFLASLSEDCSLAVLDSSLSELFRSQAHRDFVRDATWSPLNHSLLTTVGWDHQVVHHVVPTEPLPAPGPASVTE
Protocol: Biochemical Assay Protocol 1
(§2) Inhibitory effect of compounds on PRMT5 was assessed using HTRF detection technology in biochemical assay. Biotinylated H4R3 (residues 1-21) was used as a substrate. Compounds were pre-incubated with 15-25 ng PRMT5:MEP50 per well of a 384-well plate for 30 min at room temperature in the assay buffer containing 20 mM Bicine, pH 7.6, 25 mM NaCl, 2 mM DTT, 0.01% Chicken albumin and 0.01% Tween-20. Reaction was initiated by adding 1 μM of SAM and 50 nM biotinylated H4R3. Total assay volume was 15 μL. Reaction was continued for 120 min at room temperature. Then detection solution containing Streptavidin-Eu cryptate, anti-rabbit IgG-XL-665, Histone H4R3 Dimethyl Symmetric (H4R3me2s) Polyclonal Antibody, all prepared in HTRF detection buffer was added and further incubated for 30 min at room temperature. HTRF signal was recorded in PHERAStar microplate reader. Ratio of signal obtained at 665 nm and 620 nm was used to compute the percent inhibition of compound as follows % Inhibition=100−((Test Ratio−Negative control Ratio)/(Positive control Ratio−Negative control Ratio)*100) where Positive control=PRMT5+SAM+H4R3 Negative control=PRMT5+H4R3 Biochemical Assay Protocol 2
as §2, with “2.5” for “15-25”, “4 h” for “120 min”, “control=PRMT5+H4R3” for “control=PRMT5+H4R3 Biochemical Assay Protocol 2”

Z-138 cells [2] = test: Anti-cancer assay (Z-138), cell viability CellTiterGlo; format: cell-based; conditions: Homo sapiens, 96 h, activity range, lower bound in pM, upper bound in nM
Protocol: (§3) Anticancer Activity Assay
(§4) Z-138 cells were seeded at a density of 2000-3000 cells per well in culture media (IMDM+10% FBS). PANC-1 (ATCC, CRL-1469™) and MIA PaCa-2 (ATCC, CRL-1420™) cells were seeded at a density of 200-300 cells per well in culture media (DMEM+10% FBS). Cells were seeded in opaque, flat bottomed tissue culture grade 96-well plates and Z-138 cells (suspension) were seeded and treated on the same day with various concentrations of test compounds. PANC-1 and MIA PaCa-2 cells, being adherent, were kept for overnight settlement at standard cell culture conditions (37° C., 5% CO2). On the following day, cells were treated with various concentrations of test compounds. Cells were treated with test compounds for a period of 96 h, 7 days and 10 days, for Z-138 cells, PANC-1 cells and MIA PaCa-2 cells, respectively. Cell viability was assessed using CellTiterGlo™ (Promega, USA) as per manufacturer's instructions. Relative Light Units (RLU) were read in Synergy™ 2 reader (Biotek, USA). The assay measures cellular ATP as an indicator of cell viability. RLU is proportional to the number of viable cells in the respective well.
(§5) % inhibition of cell viability was calculated relative to the vehicle control samples containing media with 0.1% DMSO alone as per the formula below. (Avg. of Untreated Control−Avg. of Test)×100 Avg. of Untreated Control
as §1
Anti-Cancer Assay (Z-138)

PANC-1 cells = test: Anti-cancer assay (Panc-1), cell viability CellTiterGlo; format: cell-based; conditions: Homo sapiens, PANC-1, 168 h, 7 days
Protocol: as §3, §4, §5, §1
Anti-Cancer Assay (Panc-1)

[3] = activity range, lower bound in pM, upper bound in nM

| SMILES | IC50 (Z-138 cells [1]) | IC50 (PRMT5:MEP50) | IC50 (Z-138 cells [2]) | IC50 (PANC-1 cells; [3]) | IC50 (PANC-1 cells; activity range 20 nM to 100 nM) |
| --- | --- | --- | --- | --- | --- |
| Cc1ncnc2c1ccn2[C@@H]1C=C(C(C)Cc2cc(F)c3cc(Cl)c(N)nc3c2)[C@@H](O)[C@H]1O (single isomer, unassigned) [Compound-35b] | 1.1 to 50 nM | 0.3 to 0.95 nM |  |  |  |
| Nc1nc2cc(CC[C@@]34C[C@@H]3[C@@H](n3ccc5c(N)ncnc53)[C@H](O)[C@@H]4O)c(F)cc2cc1Br [Compound-64, (1R,2R,3S,4R,5S)-1-(2-(2-amino-3-bromo-6-fluoroquinolin-7-yl)ethyl)-4-(4-amino-7H-pyrrolo[2,3-d]pyrimidin-7-yl)bicyclo[3.1.0]hexane-2,3-diol] | 1.1 to 50 nM |  | 101 to 1000 pM | 300 to 20000 pM |  |
| Nc1nc2c(F)c(CCC3=C[C@@H](n4ccc5c(N)ncnc54)[C@H](O)[C@@H]3O)ccc2cc1Cl [Compound-26, (1S,2R,5R)-3-(2-(2-amino-3-chloro-8-fluoroquinolin-7-yl)ethyl)-5-(4-amino-7H-pyrrolo[2,3-d]pyrimidin-7-yl)cyclopent-3-ene-1,2-diol] |  | 0.3 to 0.95 nM | 101 to 1000 pM |  |  |
| Nc1nc2cc(CCC3=C[C@@H](n4ccc5c(N)ncnc54)[C@H](O)[C@@H]3O)c(F)cc2cc1Cl [Compound-25, (1S,2R,5R)-3-(2-(2-amino-3-chloro-6-fluoroquinolin-7-yl)ethyl)-5-(4-amino-7H-pyrrolo[2,3-d]pyrimidin-7-yl)cyclopent-3-ene-1,2-diol] | 1.1 to 50 nM | 0.3 to 0.95 nM |  | 300 to 20000 pM |  |
| CC(Oc1cc(F)c2cc(Cl)c(N)nc2c1)C1=C[C@@H](n2ccc3c(N)ncnc32)[C@H](O)[C@@H]1O (stereo partly drawn) [Compound-20b, (1S,2R,5R)-3-(1-((2-amino-3-chloro-5-fluoroquinolin-7-yl)oxy)ethyl)-5-(4-amino-7H-pyrrolo[2,3-d]pyrimidin-7-yl)cyclopent-3-ene-1,2-diol] |  |  | 101 to 1000 pM |  |  |
| Cc1ncnc2c1ccn2[C@@H]1C=C(CCc2cc(F)c3cc(Cl)c(N)nc3c2)[C@@](C)(O)[C@H]1O [Compound-39, (1S,2R,5R)-3-(2-(2-amino-3-chloro-5-fluoroquinolin-7-yl)ethyl)-2-methyl-5-(4-methyl-7H-pyrrolo[2,3-d]pyrimidin-7-yl)cyclopent-3-ene-1,2-diol] |  |  | 101 to 1000 pM |  | 20000 to 100000 pM |
| CC(Cc1ccc2cc(Br)c(N)nc2c1)[C@@]12C[C@@H]1[C@@H](n1ccc3c(N)ncnc31)[C@H](O)[C@@H]2O (single isomer, unassigned) [Compound-76a] | 1.1 to 50 nM | 0.3 to 0.95 nM | 101 to 1000 pM |  |  |
| Cn1cc(-c2ncnc3c2ccn3[C@@H]2C=C(CCc3cc(F)c4cc(Cl)c(N)nc4c3)[C@@H](O)[C@H]2O)cn1 [Compound-32, (1S,2R,5R)-3-(2-(2-amino-3-chloro-5-fluoroquinolin-7-yl)ethyl)-5-(4-(1-methyl-1H-pyrazol-4-yl)-7H-pyrrolo[2,3-d]pyrimidin-7-yl)cyclopent-3-ene-1,2-diol] | 1.1 to 50 nM |  |  |  |  |
| CC(Cc1cc(F)c2cc(Cl)c(N)nc2c1)C1=C[C@@H](n2ccc3c(N)ncnc32)[C@H](O)[C@@H]1O (single isomer, unassigned) [Compound-33a] | 1.1 to 50 nM |  |  |  | 20000 to 100000 pM |
| Nc1nc2cc(CCC3=C[C@@H](n4ccc5c(N)ncnc54)[C@H](O)[C@@H]3O)ccc2cc1Cl [Compound-2, (1S,2R,5R)-3-(2-(2-amino-3-chloroquinolin-7-yl)ethyl)-5-(4-amino-7H-pyrrolo[2,3-d]pyrimidin-7-yl)cyclopent-3-ene-1,2-diol] |  | 0.3 to 0.95 nM |  | 300 to 20000 pM |  |
| CC(Cc1ccc2cc(Br)c(N)nc2c1)C1=C[C@@H](n2ccc3c(N)ncnc32)[C@H](O)[C@@H]1O (stereo partly drawn) [7b, (1S,2R,5R)-3-(1-(2-Amino-3-bromoquinolin-7-yl)propan-2-yl)-5-(4-amino-7H-pyrrolo[2,3-d]pyrimidin-7-yl)cyclopent-3-ene-1,2-diol] |  |  | 101 to 1000 pM | 300 to 20000 pM |  |
| Nc1nc2cc(CC[C@@]34C[C@@H]3[C@@H](n3ccc5c(N)ncnc53)[C@H](O)[C@@H]4O)c(F)cc2cc1Cl [Compound-62, (1R,2R,3S,4R,5S)-1-(2-(2-Amino-3-chloro-6-fluoroquinolin-7-yl)ethyl)-4-(4-amino-7H-pyrrolo[2,3-d]pyrimidin-7-yl) bicyclo[3.1.0]hexane-2,3-diol] | 1.1 to 50 nM |  | 101 to 1000 pM |  | 20000 to 100000 pM |
| Nc1ccc2c(F)cc(CCC3=C[C@@H](n4ccc5c(N)ncnc54)[C@H](O)[C@@H]3O)cc2n1 [Compound-47, (1S,2R,5R)-3-(2-(2-amino-5-fluoroquinolin-7-yl)ethyl)-5-(4-amino-7H-pyrrolo[2,3-d]pyrimidin-7-yl)cyclopent-3-ene-1,2-diol] |  | 0.3 to 0.95 nM |  | 300 to 20000 pM |  |
| Nc1nc2cc(CCC3=C[C@@H](n4ccc5c(N)ncnc54)[C@H](O)[C@@H]3O)cc(F)c2cc1Br [Compound-43, (1S,2R,5R)-3-(2-(2-Amino-3-bromo-5-fluoroquinolin-7-yl)ethyl)-5-(4-amino-7H-pyrrolo[2,3-d]pyrimidin-7-yl)cyclopent-3-ene-1,2-diol] |  | 0.3 to 0.95 nM |  | 300 to 20000 pM |  |
